Test results taken from the supplement of paper PMC10307832.

Experiments:
Assay in all cases: relative viability (nuclei count vs DMSO), 5 days (fraction); higher = more cells survive
Dovitinib + Palbociclib = compound: CN1CCN(c2ccc3nc(-c4c(N)c5c(F)cccc5[nH]c4=O)[nH]c3c2)CC1 [Dovitinib] + CC(=O)c1c(C)c2cnc(Nc3ccc(N4CCNCC4)cn3)nc2n(C2CCCC2)c1=O [Palbociclib] (partner 0.5 µM)
How it was run: (§1)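 The day after seeding in 1536-well plates, lung cancer cell lines were treated by pin tool with a single drug, or with a fixed anchor-drug dose together with five library-drug doses (not always all listed) in √10 steps. After 5 days, a combined fix-and-stain solution (final 0.05% Triton X-100, 1% formaldehyde, 1 ug/ml Hoechst) was added. Nuclei counted on 4× images gave relative viability as treated counts over vehicle counts, reported as the median of duplicate plates.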

Dovitinib + Crizotinib = compound: CN1CCN(c2ccc3nc(-c4c(N)c5c(F)cccc5[nH]c4=O)[nH]c3c2)CC1 [Dovitinib] + C[C@@H](Oc1cc(-c2cnn(C3CCNCC3)c2)cnc1N)c1c(Cl)ccc(F)c1Cl [Crizotinib] (partner 1 µM)
How it was run: as §1

Dovitinib + AZD7762 = compound: CN1CCN(c2ccc3nc(-c4c(N)c5c(F)cccc5[nH]c4=O)[nH]c3c2)CC1 [Dovitinib] + NC(=O)Nc1cc(-c2cccc(F)c2)sc1C(=O)N[C@H]1CCCNC1 [AZD7762] (partner 0.2 µM)
How it was run: as §1

Dovitinib + Vorinostat = compound: CN1CCN(c2ccc3nc(-c4c(N)c5c(F)cccc5[nH]c4=O)[nH]c3c2)CC1 [Dovitinib] + O=C(CCCCCCC(=O)Nc1ccccc1)NO [Vorinostat] (partner 1 µM)
How it was run: as §1

Cell Line	relative viability (Dovitinib + Palbociclib; first compound 0.02 µM)	relative viability (Dovitinib + Palbociclib; first compound 0.06325 µM)	relative viability (Dovitinib + Palbociclib; first compound 0.2 µM)	relative viability (Dovitinib + Palbociclib; first compound 0.6325 µM)	relative viability (Dovitinib + Palbociclib; first compound 2 µM)	relative viability (Dovitinib + Crizotinib; first compound 0.02 µM)	relative viability (Dovitinib + Crizotinib; first compound 0.06325 µM)	relative viability (Dovitinib + Crizotinib; first compound 0.6325 µM)	relative viability (Dovitinib + Crizotinib; first compound 2 µM)	relative viability (Dovitinib + AZD7762; first compound 0.02 µM)	relative viability (Dovitinib + AZD7762; first compound 0.06325 µM)	relative viability (Dovitinib + AZD7762; first compound 0.2 µM)	relative viability (Dovitinib + AZD7762; first compound 0.6325 µM)	relative viability (Dovitinib + AZD7762; first compound 2 µM)	relative viability (Dovitinib + Vorinostat; first compound 0.02 µM)	relative viability (Dovitinib + Vorinostat; first compound 0.06325 µM)	relative viability (Dovitinib + Vorinostat; first compound 0.2 µM)	relative viability (Dovitinib + Vorinostat; first compound 0.6325 µM)	relative viability (Dovitinib + Vorinostat; first compound 2 µM)	relative viability (Dovitinib + Crizotinib; first compound 0.2 µM)
201T	0.366	0.379	0.341	0.371	0.367	1.03	0.935	0.992	1.01	0.615	0.814	0.598	0.606	0.562	0.862	0.957	0.908	0.947	0.949	–
A549	–	–	–	–	–	0.702	0.763	0.694	0.733	–	–	–	–	–	–	–	–	–	–	0.741
A-427	0.502	0.517	0.553	0.521	0.587	0.854	0.812	0.708	0.819	0.767	0.733	0.674	0.665	0.697	0.83	0.845	0.895	0.941	0.991	0.85
ABC-1	0.513	0.797	0.833	0.627	0.725	1.54	1.19	1.2	1.08	0.519	0.852	0.735	0.536	0.698	1.14	1.12	1.07	1.18	1.18	1.22
BEN	0.477	0.46	0.456	0.478	0.492	0.864	0.903	0.827	0.887	0.692	0.697	0.637	0.877	0.597	0.551	0.542	0.578	0.598	0.57	0.912
CAL-12T	0.563	0.55	0.406	0.526	0.589	0.532	0.628	0.635	0.661	0.648	0.664	0.558	0.659	0.505	0.754	0.73	0.926	0.829	0.764	0.654
COR-L23	0.269	0.261	0.306	0.372	0.324	0.655	0.526	0.55	0.756	–	–	–	–	–	0.431	0.505	0.551	0.379	0.462	0.638
COR-L 105	0.434	0.421	0.46	0.419	0.427	0.706	0.832	0.701	0.69	–	–	–	–	–	0.867	0.801	0.833	0.69	0.794	0.774
Calu-6	–	–	–	–	–	0.674	0.827	0.847	0.779	–	–	–	–	–	–	–	–	–	–	0.665
ChaGo-K-1	0.927	0.936	0.866	0.912	0.881	1.03	1.08	1.11	1.15	0.901	0.891	0.892	0.9	0.857	0.739	0.814	0.758	0.766	0.706	1.09
